Source: patent publication US20240308992A1 (Biopolar Youtang(Guangdong) Pharmaceutical Co., Ltd., priority 2021, published 2024)

molecular target: T1, Drak2 (Homo sapiens, UniProt O94768); experiment: Drak2 activity test, ADP-Glo kinase assay (Promega); format: biochemical; settings: inhibition of Drak2 kinase activity, 2 h room temperature, activity range classes, read-out: IC50_Drak2
T1 sequence (O94768 1-372): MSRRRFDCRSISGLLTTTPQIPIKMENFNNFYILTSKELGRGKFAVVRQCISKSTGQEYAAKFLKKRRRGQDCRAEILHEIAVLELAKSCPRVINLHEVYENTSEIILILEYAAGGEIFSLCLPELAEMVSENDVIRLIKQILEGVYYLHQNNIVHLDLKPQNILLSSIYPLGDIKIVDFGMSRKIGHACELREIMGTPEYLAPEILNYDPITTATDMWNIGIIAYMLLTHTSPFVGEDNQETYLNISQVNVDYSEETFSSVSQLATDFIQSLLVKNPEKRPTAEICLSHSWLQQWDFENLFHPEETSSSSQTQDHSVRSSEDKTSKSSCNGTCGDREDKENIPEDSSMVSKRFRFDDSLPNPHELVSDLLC

| IC50 [µM] | SMILES |
| --- | --- |
| 0.101 to 1 | COc1cc(-c2cncc(-c3cc(NC(=O)CC4CCC4)cs3)n2)ccc1S(=O)(=O)C1CCC1 [Example A48, 2-cyclobutyl-N-(5-(6-(4-(cyclobutylsulfonyl)-3-methoxyphenyl)pyrazin-2-yl)thiophen-3-yl)acetamide] |
| 0.011 to 0.1 | Cn1ncc2ccc(-c3cncc(-c4cc(NC(=O)CC5CCC5)cs4)n3)cc21 [Example A49, 2-cyclobutyl-N-(5-(6-(1-methyl-1H-indazol-6-yl)pyrazin-2-yl)thiophen-3-yl)acetamide] |
| 0.011 to 0.1 | CN1CCC(Cn2cc3ccc(-c4cncc(-c5cc(NC(=O)CC6CCC6)cs5)n4)cc3n2)CC1 [Example A50, 2-cyclobutyl-N-(5-(6-(2-((1-methylpiperidin-4-yl)methyl)-2H-indazol-6-yl)pyrazin-2-yl)thiophen-3-yl)acetamide] |
| 0.101 to 1 | Cc1nn(C)c2cc(-c3cncc(-c4cc(NC(=O)CC5CCC5)cs4)n3)ccc12 [Example A51, 2-cyclobutyl-N-(5-(6-(1,3-dimethyl-1H-indazol-6-yl)pyrazin-2-yl)thiophen-3-yl)acetamide] |
| 0.011 to 0.1 | O=C(CC1CCC1)Nc1csc(-c2cncc(-c3ccc4cn[nH]c4c3)n2)c1 [Example A52, N-(5-(6-(1H-indazol-6-yl)pyrazin-2-yl)thiophen-3-yl)-2-cyclobutylacetamide] |
| 0.101 to 1 | CCCCC(=O)Nc1csc(-c2cncc(-c3ccc(C(=O)OC)c(OC)c3)n2)c1 [Example B1, Methyl 2-methoxy-4-(6-(4-pentanamidothiophen-2-yl)pyrazin-2-yl)benzoate] |
| 0.011 to 0.1 | CCCCC(=O)Nc1csc(-c2cncc(-c3ccc(C(=O)O)c(OC)c3)n2)c1 [Example B2, 2-methoxy-4-(6-(4-pentanamidothiophen-2-yl)pyrazin-2-yl)benzoic acid] |
| 0.101 to 1 | CCCCC(=O)Nc1csc(-c2cncc(-c3ccc(C(N)=O)c(OC)c3)n2)c1 [Example B3, 2-methoxy-4-(6-(4-pentanamidothiophen-2-yl)pyrazin-2-yl)benzamide] |
| 0.011 to 0.1 | CCCCC(=O)Nc1csc(-c2cncc(-c3ccc(C(=O)Nc4nnn[nH]4)c(OC)c3)n2)c1 [Example B4, 2-methoxy-4-(6-(4-pentanamidothiophen-2-yl)pyrazin-2-yl)-N-(1H-tetrazol-5-yl)benzamide] |
| 0.101 to 1 | CCCCC(=O)Nc1csc(-c2cncc(-c3ccc(C(=O)Nc4ncc[nH]4)c(OC)c3)n2)c1 [Example B5, 2-methoxy-4-(6-(4-pentanamidothiophen-2-yl)pyrazin-2-yl)-N-(1H-imidazol-2-yl) benzamide] |
| 0.101 to 1 | COc1cc(-c2cncc(-c3cc(NC(=O)C4CCCCC4)cs3)n2)ccc1C(=O)O [Example B6, 4-(6-(4-(cyclohexanecarboxamido)thiophen-2-yl)pyrazin-2-yl)-2-methoxybenzoic acid] |
| 0.101 to 1 | CCCCC(=O)Nc1csc(-c2cncc(-c3ccc(C(=O)NS(=O)(=O)N(C)C)c(OC)c3)n2)c1 [Example B7, 2-methoxy-4-(6-(4-pentanamidothiophen-2-yl)pyrazin-2-yl)-N-(N,N-dimethylsulfamoyl)benzamide] |
| 1 to 10 | CCCCC(=O)Nc1csc(-c2cncc(-c3ccc(C(=O)Nc4nccs4)c(OC)c3)n2)c1 [Example B8, 2-methoxy-4-(6-(4-pentanamidothiophen-2-yl)pyrazin-2-yl)-N-(thiazol-2-yl)benzamide] |
| 0.101 to 1 | CCCC(=O)Nc1csc(-c2cncc(-c3ccc(C(=O)Nc4nnn[nH]4)c(OC)c3)n2)c1 [Example B9, 2-methoxy-4-(6-(4-butyramidothiophen-2-yl)pyrazin-2-yl)-N-(1H-tetrazol-5-yl)benzamide] |
| 0.101 to 1 | COc1cc(-c2cncc(-c3cc(NC(C)=O)cs3)n2)ccc1C(=O)Nc1nnn[nH]1 [Example B10, 2-methoxy-4-(6-(4-acetamidothiophen-2-yl)pyrazin-2-yl)-N-(1H-tetrazol-5-yl)benzamide] |
| 0.101 to 1 | CCC(=O)Nc1csc(-c2cncc(-c3ccc(C(=O)Nc4nnn[nH]4)c(OC)c3)n2)c1 [Example B11, 2-methoxy-4-(6-(4-propionamidothiophen-2-yl)pyrazin-2-yl)-N-(1H-tetrazol-5-yl)benzamide] |
| 0.101 to 1 | COc1cc(-c2cncc(-c3cc(NC(=O)CC4CC4)cs3)n2)ccc1C(=O)Nc1nnn[nH]1 [Example B12, 2-methoxy-4-(6-(4-(2-cyclopropylacetamido)thiophen-2-yl)pyrazin-2-yl)-N-(1H-tetrazol-5-yl)benzamide] |
| 0.101 to 1 | COc1cc(-c2cncc(-c3cc(NC(=O)Cc4ccco4)cs3)n2)ccc1C(=O)Nc1nnn[nH]1 [Example B13, 2-methoxy-4-(6-(4-(2-(furan-2-yl)acetamido)thiophen-2-yl)pyrazin-2-yl)-N-(1H-tetrazol-5-yl)benzamide] |
| 0.101 to 1 | COc1cc(-c2cncc(-c3cc(NC(=O)CC4CCCCC4)cs3)n2)ccc1C(=O)Nc1nnn[nH]1 [Example B14, 2-methoxy-4-(6-(4-(2-cyclohexylacetamido)thiophen-2-yl)pyrazin-2-yl)-N-(1H-tetrazol-5-yl)benzamide] |
| 0.011 to 0.1 | CCCCC(=O)Nc1csc(-c2cncc(-c3ccc(C(=O)Nc4nnnn4C)c(OC)c3)n2)c1 [Example B15, 2-methoxy-4-(6-(4-pentanamidothiophen-2-yl)pyrazin-2-yl)-N-(1-methyl-1H-tetrazol-5-yl)-benzamide] |
| 0.101 to 1 | CCCCCC(=O)Nc1csc(-c2cncc(-c3ccc(C(=O)Nc4nnn[nH]4)c(OC)c3)n2)c1 [Example B16, 2-methoxy-4-(6-(4-hexanamidothiophen-2-yl)pyrazin-2-yl)-N-(1H-tetrazol-5-yl)benzamide] |
| 1 to 10 | CCCCCCC(=O)Nc1csc(-c2cncc(-c3ccc(C(=O)Nc4nnn[nH]4)c(OC)c3)n2)c1 [Example B17, 2-methoxy-4-(6-(4-heptanamidothiophen-2-yl)pyrazin-2-yl)-N-(1H-tetrazol-5-yl)benzamide] |
| > 10 | CCCCCCCC(=O)Nc1csc(-c2cncc(-c3ccc(C(=O)Nc4nnn[nH]4)c(OC)c3)n2)c1 [Example B18, 2-methoxy-4-(6-(4-octanamidothiophen-2-yl)pyrazin-2-yl)-N-(1H-tetrazol-5-yl)benzamide] |
| > 10 | CCCCCCCCC(=O)Nc1csc(-c2cncc(-c3ccc(C(=O)Nc4nnn[nH]4)c(OC)c3)n2)c1 [Example B19, 2-methoxy-4-(6-(4-nonanamidothiophen-2-yl)pyrazin-2-yl)-N-(1H-tetrazol-5-yl)benzamide] |
| > 10 | CCCCCCCCCC(=O)Nc1csc(-c2cncc(-c3ccc(C(=O)Nc4nnn[nH]4)c(OC)c3)n2)c1 [Example B20, 2-methoxy-4-(6-(4-decanamidothiophen-2-yl)pyrazin-2-yl)-N-(1H-tetrazol-5-yl)benzamide] |
| > 10 | CCCCCCCCCCC(=O)Nc1csc(-c2cncc(-c3ccc(C(=O)Nc4nnn[nH]4)c(OC)c3)n2)c1 [Example B21, 2-methoxy-4-(6-(4-undecanamidothiophen-2-yl)pyrazin-2-yl)-N-(1H-tetrazol-5-yl)benzamide] |
| 0.101 to 1 | CCCCC(=O)Nc1csc(-c2cncc(-c3ccc(C(=O)Nc4cn(C)c(C(=O)OC)n4)c(OC)c3)n2)c1 [Example B22, methyl 4-(2-methoxy-4-(6-(4-pentanamidothiophen-2-yl)pyrazin-2-yl)benzamido)-1-methyl-1H-imidazole-2-carboxylate] |
